Read-outs that look alike come from different tables or passages of the source.
Legend:
[1] = test system: mold; assay: Mold remediation study: vapor from acidified 600 ppm NaOCl in a closed 1400 cc container; type: cell-based; settings: 10 ml acidified 600 ppm NaOCl in 1400 cc; all NaOCl assumed converted to HOCl
Experimental: For purposes of the calculation which now follows, it is assumed that essentially all of the NaOCl is converted to HOCl when acidified, which is a valid assumption given the equilibrium of the reaction. For mold remediation studies, 10 ml of acidified 600 ppm NaOCl was placed in a container with a volume of 1400 cc. • 10 ml of 600 ppm NaOCl=0.00600 g NaOCl/10 ml • 0.00600 g NaOCl=(0.00600 g NaOCl)(52.5 g HOCl)/(74.5 g NaOCl)=0.00423 g HOCl This quantity is diluted to 1400 cc. Therefore, the maximum concentration of HOCl gas in the container studied is: • 0.00423 g/1400 cc=3.02×10^−6 g HOCl/cc. […] Thus, we have discovered that by converting the NaOCl to HOCl and using it in the form of a gas the concentration needed for mold cidal activity is at least about 47 times less than is recommended for sanitation in the liquid form of hypochlorite bleach! We next investigated the removal of mold stain from surfaces.

[2] = test system: mold and mold stains; assay: Mold kill and mold stain removal study: vapor from acidified 6.0% NaOCl diluted in water, in a 1400 cc container; type: cell-based; settings: 5 mL 6.0% NaOCl + 50 mL water, in 1400 cc
Experimental: First, the recommended concentration of HOCl for sanitization of surfaces according to the prior art is calculated. Referring to the label of Ultra Chlorox® brand of sodium hypochlorite and noticing that a recommended concentration of NaOCl for mold and mildew stain removal is 3⁄4 cup Ultra Chlorox® plus one gallon of water. Ultra Chlorox® contains 6.00% NaOCl per the label. […] For the mold remediation studies, 5 mL of 6.0% NaOCl was mixed with 50 mL of water, acidified and was placed in a container with a volume of 1400 cc. • 5 mL of 6.0% NaOCl=0.30 g NaOCl • Assuming all of the NaOCl is converted to HOCl: • 0.30 g NaOCl=(0.30 g NaOCl)(52.5 g HOCl)/(74.5 g NaOCl)=0.21 g HOCl This quantity of HOCl is diluted to 1400 cc. Therefore, the maximum concentration of HOCl gas in the container studied is: • 0.21 g HOCl/1400 cc=15×10^-5 g HOCl/cc […]

[3] = test system: germs on surfaces; assay: Label-recommended hypochlorite concentration for sanitization of surfaces (Ultra Clorox label)
[4] = test system: mold and mildew stain; assay: Label-recommended hypochlorite concentration for mold and mildew stain removal (Ultra Chlorox label)
Experimental: First, the recommended concentration of HOCl for sanitization of surfaces according to the prior art is calculated. Referring to the label of Ultra Chlorox® brand of sodium hypochlorite and noticing that a recommended concentration of NaOCl for mold and mildew stain removal is 3⁄4 cup Ultra Chlorox® plus one gallon of water. Ultra Chlorox® contains 6.00% NaOCl per the label. […] For the mold remediation studies, 5 mL of 6.0% NaOCl was mixed with 50 mL of water, acidified and was placed in a container with a volume of 1400 cc. • 5 mL of 6.0% NaOCl=0.30 g NaOCl • Assuming all of the NaOCl is converted to HOCl: • 0.30 g NaOCl=(0.30 g NaOCl)(52.5 g HOCl)/(74.5 g NaOCl)=0.21 g HOCl This quantity of HOCl is diluted to 1400 cc. Therefore, the maximum concentration of HOCl gas in the container studied is: • 0.21 g HOCl/1400 cc=15×10^-5 g HOCl/cc

[5] = test system: mold colonies; assay: Cidal action of controlled hypochlorous acid vapor on mold colonies (general statements); type: cell-based
[6] = cited from earlier work
[7] = test system: germs on surfaces; settings: cited from earlier work

**Q.** What does the source list for OCl [hypochlorous acid]?
**A.** maximum concentration of HOCl gas in the container found to kill mold [1]: 3.02×10^−6 g HOCl/cc; maximum concentration of HOCl gas in the container found to kill mold and remove stains [2]: 15×10^−5 g HOCl/cc; equivalent concentration of HOCl necessary to sanitize per manufacturer recommendation ([3]; calculated from 200 ppm NaOCl, liquid): 1.41×10^−4 g HOCL/cc; Conc. of HOCl equivalent to the recommended stain removal solution ([4]; all NaOCl assumed converted to HOCl): 0.0019 g HOCl/cc; time to completely eradicate even the most refractory of mold colonies ([5]; hypochlorous acid vapors generated and controlled as described): ≤ 24 h; hypochlorous acid concentration in the air that must be exceeded for effective cidal action on mold-contaminated materials ([5]; in air): exceed 3×10^−7 grams/cubic centimeter; % as HOCl ([6]; pH 5.0): 100%; % as HOCl ([6]; pH 6.0): 96%; % as HOCl ([6]; pH 7.0): 72%; % as HOCl ([6]; pH 7.2): 66%; % as HOCl ([6]; pH 7.5): 48%; % as HOCl ([6]; pH 7.8): 33%; % as HOCl ([6]; pH 8.0): 22%

**Q.** Which “recommended sanitizing concentration expressed by volume” value ([3]; corresponds to 200 ppm aqueous solution) does the source give for OCl [sodium hypochlorite, reference compound] here?
**A.** Its value is 200×10^−6 grams/cc.

**Q.** What about the “NaOCl conc. recommended by Ultra Chlorox for mold and mildew stain removal” value ([4]; ¾ cup Ultra Chlorox (6.00% NaOCl) plus one gallon of water) of the same compound?
**A.** The value was 0.0027 g/cc.

**Q.** What about the “recommended concentration for killing germs on surfaces / sanitation” value [7] of the same compound?
**A.** The value was 200 ppm.

**Q.** For hypochlorite ion [OCl—], which “% as OCl—” value ([6]; pH 5.0) is on record?
**A.** Its value is 0%.

**Q.** And the “% as OCl—” value ([6]; pH 6.0)?
**A.** The value was 4%.

**Q.** What about the “% as OCl—” value ([6]; pH 7.0) of the same compound?
**A.** The value was 28%.

**Q.** And the “% as OCl—” value ([6]; pH 7.2)?
**A.** The value was 34%.

**Q.** What about the “% as OCl—” value ([6]; pH 7.5) of the same compound?
**A.** The value was 52%.

**Q.** And the “% as OCl—” value ([6]; pH 7.8)?
**A.** Its value is 67%.

**Q.** What about the “% as OCl—” value ([6]; pH 8.0) of the same compound?
**A.** The value was 78%.
